Active and inactive are the calls of the source.
What was measured:
[1] = target: Peroxisome proliferator-activated receptor gamma/Nuclear receptor coactivator 1 (Homo sapiens, UniProt P37231); assay: (§1) TR-FRET dose response biochemical High Throughput Screening assay for agonists of the steroid receptor coactivator 1 (SRC-1) recruitment by the peroxisome proliferator-activated receptor gamma (PPAR gamma): non-selective agonists. [Related pubchem assays (depositor defined):AID1300, AID1808, AID504735, AID631]; assay type: protein assay
Peroxisome proliferator-activated receptor gamma/Nuclear receptor coactivator 1, sequence (P37231 whole entry): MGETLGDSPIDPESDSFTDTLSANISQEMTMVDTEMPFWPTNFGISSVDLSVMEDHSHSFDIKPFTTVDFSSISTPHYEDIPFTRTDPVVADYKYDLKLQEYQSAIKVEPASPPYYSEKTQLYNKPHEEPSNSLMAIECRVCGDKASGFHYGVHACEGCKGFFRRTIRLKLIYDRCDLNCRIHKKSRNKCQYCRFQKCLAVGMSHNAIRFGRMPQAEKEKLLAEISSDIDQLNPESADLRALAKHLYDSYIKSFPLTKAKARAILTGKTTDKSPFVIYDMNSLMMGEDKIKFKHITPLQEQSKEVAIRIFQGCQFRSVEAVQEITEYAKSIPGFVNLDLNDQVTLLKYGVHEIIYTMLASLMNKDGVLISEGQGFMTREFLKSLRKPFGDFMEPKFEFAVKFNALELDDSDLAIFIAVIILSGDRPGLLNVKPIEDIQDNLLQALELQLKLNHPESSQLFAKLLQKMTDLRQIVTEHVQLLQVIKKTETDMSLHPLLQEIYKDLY
Peroxisome proliferator-activated receptor gamma/Nuclear receptor coactivator 1, sequence (Q15788 whole entry, further chain): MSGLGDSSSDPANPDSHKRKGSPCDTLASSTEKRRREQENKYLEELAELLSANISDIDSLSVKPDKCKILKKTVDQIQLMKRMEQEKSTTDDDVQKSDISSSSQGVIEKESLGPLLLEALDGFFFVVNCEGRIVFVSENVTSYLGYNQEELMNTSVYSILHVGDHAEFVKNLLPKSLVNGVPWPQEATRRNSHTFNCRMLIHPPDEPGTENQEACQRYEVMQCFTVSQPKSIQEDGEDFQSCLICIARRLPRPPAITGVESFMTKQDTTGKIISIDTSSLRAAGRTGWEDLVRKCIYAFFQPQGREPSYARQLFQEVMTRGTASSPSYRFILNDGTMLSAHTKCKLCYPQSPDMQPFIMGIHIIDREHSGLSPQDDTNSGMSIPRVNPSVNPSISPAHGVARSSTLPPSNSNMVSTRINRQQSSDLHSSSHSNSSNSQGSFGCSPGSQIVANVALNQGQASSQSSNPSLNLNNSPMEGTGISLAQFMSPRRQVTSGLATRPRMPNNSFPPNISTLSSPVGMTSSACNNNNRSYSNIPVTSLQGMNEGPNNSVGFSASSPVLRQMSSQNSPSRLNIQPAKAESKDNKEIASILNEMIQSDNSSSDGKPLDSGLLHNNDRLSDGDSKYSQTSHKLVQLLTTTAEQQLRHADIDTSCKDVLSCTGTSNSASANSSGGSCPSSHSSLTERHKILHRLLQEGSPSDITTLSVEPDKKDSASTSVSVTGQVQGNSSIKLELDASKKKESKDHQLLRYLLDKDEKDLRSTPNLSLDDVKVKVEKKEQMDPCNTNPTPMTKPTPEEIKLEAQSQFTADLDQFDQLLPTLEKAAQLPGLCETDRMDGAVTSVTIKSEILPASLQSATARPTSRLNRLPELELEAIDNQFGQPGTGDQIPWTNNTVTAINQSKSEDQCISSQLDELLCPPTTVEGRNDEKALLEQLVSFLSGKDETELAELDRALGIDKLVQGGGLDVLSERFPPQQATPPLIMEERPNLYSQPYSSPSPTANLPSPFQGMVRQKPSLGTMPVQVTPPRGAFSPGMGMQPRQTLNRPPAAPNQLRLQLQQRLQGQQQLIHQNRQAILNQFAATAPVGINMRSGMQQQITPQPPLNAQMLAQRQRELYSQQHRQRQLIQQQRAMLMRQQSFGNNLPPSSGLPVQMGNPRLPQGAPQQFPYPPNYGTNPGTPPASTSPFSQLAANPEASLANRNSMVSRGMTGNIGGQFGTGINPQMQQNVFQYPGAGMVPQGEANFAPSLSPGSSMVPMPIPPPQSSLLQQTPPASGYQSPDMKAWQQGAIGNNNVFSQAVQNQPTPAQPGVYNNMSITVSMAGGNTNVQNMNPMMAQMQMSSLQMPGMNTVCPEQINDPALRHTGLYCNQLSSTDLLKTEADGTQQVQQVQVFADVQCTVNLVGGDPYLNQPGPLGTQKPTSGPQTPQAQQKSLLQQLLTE

[2] = target: Peroxisome proliferator-activated receptor gamma/Nuclear receptor coactivator 3 (Homo sapiens, UniProt P37231); assay: as §1, with “3 (SRC-3)” for “1 (SRC-1)”, “assays: 1301 (Confirmation screen.), 1048 (Primary screen.)]” for “assays (depositor defined):AID1300, AID1808, AID504735, AID631]”; assay type: functional
Peroxisome proliferator-activated receptor gamma/Nuclear receptor coactivator 3, sequence (P37231 whole entry): as the sequence (P37231 whole entry) above
Peroxisome proliferator-activated receptor gamma/Nuclear receptor coactivator 3, sequence (Q9Y6Q9 whole entry, further chain): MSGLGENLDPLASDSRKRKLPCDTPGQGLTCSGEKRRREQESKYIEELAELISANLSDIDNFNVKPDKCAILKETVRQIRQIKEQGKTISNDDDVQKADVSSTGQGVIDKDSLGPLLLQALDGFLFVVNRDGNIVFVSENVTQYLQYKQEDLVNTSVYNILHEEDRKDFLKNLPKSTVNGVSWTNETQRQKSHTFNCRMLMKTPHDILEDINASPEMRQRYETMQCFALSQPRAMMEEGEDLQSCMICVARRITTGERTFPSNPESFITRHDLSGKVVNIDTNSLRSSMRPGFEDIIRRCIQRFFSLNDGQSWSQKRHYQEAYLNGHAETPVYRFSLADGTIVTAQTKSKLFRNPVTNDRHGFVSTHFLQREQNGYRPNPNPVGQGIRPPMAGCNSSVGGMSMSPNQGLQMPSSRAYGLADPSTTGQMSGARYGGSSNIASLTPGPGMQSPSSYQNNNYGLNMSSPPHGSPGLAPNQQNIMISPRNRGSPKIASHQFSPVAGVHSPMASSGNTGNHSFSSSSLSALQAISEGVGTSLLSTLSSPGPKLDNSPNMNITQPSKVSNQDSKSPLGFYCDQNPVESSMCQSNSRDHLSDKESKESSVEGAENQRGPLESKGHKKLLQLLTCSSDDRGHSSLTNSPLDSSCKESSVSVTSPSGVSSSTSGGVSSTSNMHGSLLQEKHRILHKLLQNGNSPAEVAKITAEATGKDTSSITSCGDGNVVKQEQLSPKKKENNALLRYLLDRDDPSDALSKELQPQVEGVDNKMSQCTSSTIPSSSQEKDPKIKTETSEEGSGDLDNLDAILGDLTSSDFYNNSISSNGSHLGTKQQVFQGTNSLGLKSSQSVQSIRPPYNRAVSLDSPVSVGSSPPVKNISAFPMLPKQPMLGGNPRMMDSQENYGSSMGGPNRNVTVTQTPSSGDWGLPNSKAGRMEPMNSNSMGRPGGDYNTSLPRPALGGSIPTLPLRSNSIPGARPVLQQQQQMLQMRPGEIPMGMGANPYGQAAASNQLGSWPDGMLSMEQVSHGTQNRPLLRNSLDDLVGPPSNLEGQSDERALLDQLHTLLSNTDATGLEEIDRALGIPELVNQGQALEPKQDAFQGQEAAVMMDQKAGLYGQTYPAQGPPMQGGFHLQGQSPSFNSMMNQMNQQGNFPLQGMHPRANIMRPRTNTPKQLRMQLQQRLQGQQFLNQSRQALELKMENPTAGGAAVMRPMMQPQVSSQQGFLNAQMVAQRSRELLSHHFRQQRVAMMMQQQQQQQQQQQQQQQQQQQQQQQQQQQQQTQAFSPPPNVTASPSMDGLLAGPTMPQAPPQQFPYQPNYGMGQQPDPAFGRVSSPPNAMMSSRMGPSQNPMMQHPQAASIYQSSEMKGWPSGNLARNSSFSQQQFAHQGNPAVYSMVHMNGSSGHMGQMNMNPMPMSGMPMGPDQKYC

[3] = target: Peroxisome proliferator-activated receptor gamma/Nuclear receptor coactivator 2 (Homo sapiens, UniProt P37231); assay: TR-FRET dose response biochemical High Throughput Screening assay for agonists of the steroid receptor coactivator 2 (SRC-2) recruitment by the peroxisome proliferator-activated receptor gamma (PPAR gamma): non-selective agonists. [Related pubchem assays: 1297, 1032 ]; assay type: functional
HEK293 = assay: EBV LMP1 TES2 canonical NF-kB signalling blockers – cell-based, HEK293, luciferase, cherry-pick, dose response (AID 588343); assay type: functional; conditions: Homo sapiens
[4] = target: T1, Epstein-Barr nuclear antigen 1 (Epstein-Barr virus (strain B95-8) (HHV-4) (Human herpesvirus 4), UniProt P03211); assay: inhibition of EBV nuclear antigen 1 DNA binding – biochemical, fluorescence polarization, 1536-well, dose response (AID 2381); parameters: species or system human gammaherpesvirus 4;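 further: fluorescence polarization of a Cy5 DNA probe bound by EBNA-1 protein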
T1 sequence (P03211 whole entry): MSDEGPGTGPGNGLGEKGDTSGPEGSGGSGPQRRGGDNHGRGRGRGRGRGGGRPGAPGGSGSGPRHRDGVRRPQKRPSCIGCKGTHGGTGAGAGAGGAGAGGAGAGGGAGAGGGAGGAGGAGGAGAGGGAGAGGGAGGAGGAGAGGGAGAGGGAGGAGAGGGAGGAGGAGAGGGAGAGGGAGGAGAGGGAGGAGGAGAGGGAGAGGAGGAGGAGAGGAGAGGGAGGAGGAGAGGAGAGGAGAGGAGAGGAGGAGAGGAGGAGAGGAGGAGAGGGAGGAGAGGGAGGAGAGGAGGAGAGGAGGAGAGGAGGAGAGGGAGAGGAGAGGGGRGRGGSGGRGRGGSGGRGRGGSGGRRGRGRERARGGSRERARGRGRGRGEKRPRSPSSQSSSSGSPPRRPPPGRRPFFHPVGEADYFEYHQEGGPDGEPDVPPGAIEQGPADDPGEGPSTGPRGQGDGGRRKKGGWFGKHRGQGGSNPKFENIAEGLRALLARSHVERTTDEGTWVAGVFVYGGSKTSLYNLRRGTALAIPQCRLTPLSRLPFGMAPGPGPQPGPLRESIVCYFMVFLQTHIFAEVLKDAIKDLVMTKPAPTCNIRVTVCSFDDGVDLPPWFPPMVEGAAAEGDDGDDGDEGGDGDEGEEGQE

[5] = target: T2, Lytic switch protein BZLF1 (Epstein-Barr virus (strain B95-8) (HHV-4) (Human herpesvirus 4), UniProt P03206); assay: inhibition of BZLF1 ZTA DNA binding – biochemical, fluorescence polarization, Epstein-Barr virus, 1536-well, counter-screen for EBNA-1 inhibitor project, dose response (AID 2377); parameters: species or system human gammaherpesvirus 4;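 further: fluorescence polarization of Cy5-labelled ZRE DNA probe bound by purified Zta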
T2 sequence (P03206 whole entry): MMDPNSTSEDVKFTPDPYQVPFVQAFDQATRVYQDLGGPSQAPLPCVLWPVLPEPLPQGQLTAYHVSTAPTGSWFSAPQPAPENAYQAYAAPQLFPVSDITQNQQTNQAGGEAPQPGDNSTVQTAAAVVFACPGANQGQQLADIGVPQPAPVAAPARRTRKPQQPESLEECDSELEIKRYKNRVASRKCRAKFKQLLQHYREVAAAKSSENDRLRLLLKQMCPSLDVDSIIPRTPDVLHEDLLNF

Cytochrome P450 2D6 = Cytochrome P450 2D6 (Homo sapiens, UniProt P10635);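 further: CYP2D6 member of a cytochrome P450 panel assay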
Cytochrome P450 2D6, sequence (P10635 whole entry): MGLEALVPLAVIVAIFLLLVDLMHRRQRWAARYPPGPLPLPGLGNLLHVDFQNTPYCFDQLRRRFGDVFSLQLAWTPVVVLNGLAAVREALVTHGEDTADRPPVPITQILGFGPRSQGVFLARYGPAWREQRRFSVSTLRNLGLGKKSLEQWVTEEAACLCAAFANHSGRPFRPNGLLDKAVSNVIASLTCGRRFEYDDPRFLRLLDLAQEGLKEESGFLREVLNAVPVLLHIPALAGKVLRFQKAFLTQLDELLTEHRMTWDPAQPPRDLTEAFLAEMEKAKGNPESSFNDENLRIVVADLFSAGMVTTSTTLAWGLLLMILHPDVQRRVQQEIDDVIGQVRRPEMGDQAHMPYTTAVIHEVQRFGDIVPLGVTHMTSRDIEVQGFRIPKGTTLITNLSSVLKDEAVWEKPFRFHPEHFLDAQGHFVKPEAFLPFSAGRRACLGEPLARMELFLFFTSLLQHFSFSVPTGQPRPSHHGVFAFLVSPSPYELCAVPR

[6] = target: DNA dC->dU-editing enzyme APOBEC-3G (Homo sapiens, UniProt Q9HC16); assay type: functional;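 further: Dose-response counterscreen measuring inhibition of APOBEC3G DNA deaminase activity, run while confirming APOBEC3A inhibitors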
DNA dC->dU-editing enzyme APOBEC-3G, sequence (Q9HC16 whole entry): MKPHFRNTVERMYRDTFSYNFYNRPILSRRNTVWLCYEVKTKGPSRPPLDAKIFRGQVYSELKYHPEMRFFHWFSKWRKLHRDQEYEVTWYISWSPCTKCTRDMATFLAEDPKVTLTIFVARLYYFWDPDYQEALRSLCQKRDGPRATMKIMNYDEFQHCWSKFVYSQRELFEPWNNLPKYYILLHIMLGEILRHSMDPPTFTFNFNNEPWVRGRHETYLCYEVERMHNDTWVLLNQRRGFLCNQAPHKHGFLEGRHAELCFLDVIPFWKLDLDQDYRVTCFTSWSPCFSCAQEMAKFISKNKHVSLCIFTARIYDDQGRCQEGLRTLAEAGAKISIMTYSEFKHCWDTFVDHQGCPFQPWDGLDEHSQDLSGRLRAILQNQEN

[7] = target: DNA dC->dU-editing enzyme APOBEC-3A (Homo sapiens, UniProt P31941); assay: Dose Response confirmation of small molecule APOBEC3A DNA Deaminase Inhibitors via a fluorescence-based single-stranded DNA deaminase assay. [Related pubchem assays (depositor defined):AID493011, AID493024]; assay type: functional
DNA dC->dU-editing enzyme APOBEC-3A, sequence (P31941 whole entry): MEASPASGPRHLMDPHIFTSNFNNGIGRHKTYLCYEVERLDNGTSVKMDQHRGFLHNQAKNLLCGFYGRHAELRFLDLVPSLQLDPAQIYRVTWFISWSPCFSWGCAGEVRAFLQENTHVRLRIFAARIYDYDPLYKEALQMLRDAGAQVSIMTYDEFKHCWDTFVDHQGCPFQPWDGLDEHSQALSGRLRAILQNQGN

Vero [8] = assay: cells; assay type: functional; conditions: Chlorocebus sabaeus
[9] = HEK-293T viability loss after treatment – luminescence, T-cell screen hits, cytotoxicity control for TCR NF-kB inhibitor project, dose response (AID 489026); assay type: functional, cell-based;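 further: cells exposed to compound about 14 hours before the viability readout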
Paired box protein Pax-8 = Paired box protein Pax-8 (Homo sapiens, UniProt Q06710); assay: PAX8 transcriptional activity inhibition in RMG-I – RMG-I cells, luciferase, cherry-pick, dose response (AID 687027); assay type: functional, cell-based;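 further: luciferase reporter driven by Pax8 target thyroperoxidase promoter measured by SteadyGlo luminescence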
Vero [10] = assay: cells; assay type: functional, cell-based; conditions: Chlorocebus sabaeus
[11] = microbe, parasite or virus in culture; assay type: functional; conditions: Mycobacterium tuberculosis
CAAX prenyl protease 2 = target: T3, CAAX prenyl protease 2 (Saccharomyces cerevisiae S288c, UniProt Q03530); assay type: biochemical
T3 sequence (Q03530 whole entry): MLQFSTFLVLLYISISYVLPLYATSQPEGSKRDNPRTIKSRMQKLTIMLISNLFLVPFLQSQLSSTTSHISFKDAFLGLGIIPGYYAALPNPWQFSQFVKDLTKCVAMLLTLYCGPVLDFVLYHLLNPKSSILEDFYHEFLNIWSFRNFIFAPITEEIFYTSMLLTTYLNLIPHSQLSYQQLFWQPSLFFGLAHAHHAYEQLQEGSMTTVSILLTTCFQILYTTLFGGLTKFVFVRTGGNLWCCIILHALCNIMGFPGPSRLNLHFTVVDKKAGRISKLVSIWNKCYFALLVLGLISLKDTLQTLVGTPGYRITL

[12] = target: T4, Type-1 angiotensin II receptor (Homo sapiens, UniProt P30556); assay: antagonism of angiotensin II type 1 receptor – cell-based, uHTS hits, selectivity assay for APJ receptor antagonist project, dose response (AID 463214); assay type: functional;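 further: antagonist potency against angiotensin II stimulated AT1 response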
T4 sequence (P30556 whole entry): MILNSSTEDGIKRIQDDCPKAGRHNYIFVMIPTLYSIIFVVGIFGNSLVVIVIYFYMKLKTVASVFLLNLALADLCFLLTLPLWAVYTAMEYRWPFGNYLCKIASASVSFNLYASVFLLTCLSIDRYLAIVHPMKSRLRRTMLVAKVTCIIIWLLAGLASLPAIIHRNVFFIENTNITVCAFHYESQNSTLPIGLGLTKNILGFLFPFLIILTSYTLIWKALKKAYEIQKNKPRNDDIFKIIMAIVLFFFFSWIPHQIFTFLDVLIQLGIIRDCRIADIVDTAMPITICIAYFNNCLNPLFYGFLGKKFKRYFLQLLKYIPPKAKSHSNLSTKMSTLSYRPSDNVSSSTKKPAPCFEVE

Beta-galactosidase = Beta-galactosidase (Escherichia coli, UniProt Q8VNN2); assay: PubChem AID 485352; assay type: functional

## O=C(Nc1nc(-c2ccc(S(=O)(=O)N3CCCCCC3)cc2)cs1)c1ccccc1
[1]
  EC50: 13.3 µM (inactive)
[2]
  EC50: 40.9 µM (not active)
[3]
  EC50: 15.8 µM (not active)

## CC(=O)c1c(C)[nH]c(C(=O)Nc2ccc(C)cn2)c1C
HEK293
  AC50: 1.7 µM (active)

## COc1ccccc1Nc1ncc(C(=O)Nc2ccc(OC)c(OC)c2)c2ccccc12
[4]
  IC50: 16.5 µM (not active)
[5]
  IC50: > 111 µM (not active)

## CCCC(=O)Nc1ccc2nc(SCC(=O)Nc3ccc(N4CCOCC4)c(Cl)c3)sc2c1
Cytochrome P450 2D6
  AC50: 10 µM (inconclusive)
[4]
  IC50: > 148 µM (not active)
[6]
  IC50: 4.72 µM (active)
[7]
  IC50: 4.33 µM (active)
[5]
  IC50: > 111 µM (not active)

## O[C@@H]1[C@@H](O)C=C2CCN3Cc4cc5c(cc4[C@H]1C23)OCO5 (stereo partly specified)
Vero [8]
  CC50: 5.86 µM (active)
[9]
  IC50: > 80 µM (inactive)
Paired box protein Pax-8
  AC50: 1.88 µM (active)
Vero [10]
  IC50: > 25 µM (active)

## COc1ccc(CN2CCN(C(c3ccc(F)cc3)c3ccc(F)cc3)CC2)c(OC)c1OC
[11]
  CC50: > 40 µM (active)
CAAX prenyl protease 2
  AC50: 4.67 µM (active)

## CNC(=S)NNC(=O)c1sccc1OCc1cccc(C(F)(F)F)c1
[4]
  IC50: 9.69 µM (active)
[5]
  IC50: > 111 µM (not active)

## CCOC(=O)c1oc2ccccc2c1NC(=O)c1ccc(S(=O)(=O)N(C)C)cc1
[4]
  IC50: 16.6 µM (not active)
[5]
  IC50: > 111 µM (not active)

## CCCCOC(=O)C(C)Nc1n[nH]c(=S)[nH]c1=O (stereo unspecified)
[1]
  EC50: 17.3 µM (inactive)
[2]
  EC50: > 79.4 µM (not active)
[3]
  EC50: 16.3 µM (not active)

## O=C(CN1C(=O)c2ccccc2C1=O)NCC(=O)OCC(=O)c1cccc([N+](=O)[O-])c1
[12]
  IC50: 17.4 µM (active)
Beta-galactosidase
  EC50: > 40 µM (inactive)

Source: ChEMBL document CHEMBL1201862, “PubChem BioAssay data set” (2004)
